Assay [1] addresses T1, LRBA and CTLA-4 reporting system (Homo sapiens, UniProt P16410+P50851).
T1 construct: expressed in transfected cells; host or cells: HEK293
The assay can be described thus: LRBA/CTLA-4 protein-protein interaction reporting system, dual luciferase assay in HEK293 cells. In kind it is cell-based. As to conditions: HEK293 cells co-transfected with LRBA and CTLA-4 reporting system, 24 h after dosing; read-out: In vitro activity (IC50: concentration of compounds that inhibit 50% of reporting system activity). The protocol: HEK293 cells were spread on 96-well plates, and LRBA and CTLA-4 reporting system were co-transfected into HEK293 cells after 24 h. After 24 h, different compounds with final concentrations of 0.01, 0.033, 0.10, 0.33, 1.00, 3.33, 10.00, 33.33, and 100.00 μM were added. 24 h after dosing, the cell culture medium was removed and the cells were washed with cold PBS. Then the activity of the compounds were detected by the dual luciferase assay kit, and IC50 values were calculated according to the results.
For the compounds with strong activity (IC50<200 nM), the degradation of CTLA-4 protein was further detected by Western Blot. • IC50: Concentration of compounds that inhibit 50% of reporting system activity The size of IC50 is divided into four levels: • ++++, IC50<200 nM; +++, IC50 is 200-1000 nM; ++, IC50 is 1000-2000 nM; +, IC50>2000 nM.

The subject of assay [2] is Mouse colon cancer MC-38 cells. As to the kind of experiment: In vivo activity research of xenograft model (MC-38). On the set-up: species or system C57BL/6 mice. As to conditions: for TGI(%): 30 mg/kg, oral, once a day, MC-38 subcutaneous in C57BL/6 mice. On the procedure: 1. Cell culture: Mouse colon cancer MC-38 cells were adherently cultured in vitro. The culture conditions were RPMI-1640 medium with 10% fetal bovine serum, 100 U/mL penicillin and 100 μg/mL streptomycin, 37° C. 5% CO2 incubator culture. Passaged with routine processing two to three times a week. When the cell saturation was 80%-90% and the number reached the requirement, the cell count was collected, and the cell concentration was adjusted for experimental inoculation. 2. Animals: C57BL/6 mice, female, 7 weeks old, 18-20 grams in weight, 8 mice per group. 3. Tumor inoculation: 0.02 mL (0.2×10^6) MC-38 cells were subcutaneously inoculated into the right back of each mouse. On the 7th day after inoculation, the tumor volumes of the animals were measured, and then the groups were randomized according to tumor volume and administration was started. 4. Experimental indicators: The experimental indicators were used to examine whether the tumor growth is inhibited, delayed or cured. Tumor diameters were measured with vernier calipers two to three times a week. The calculation formula of tumor volume is: V=0.5a×b^2, wherein a and b respectively represent the long and short diameters of tumors. The anti-tumor effect of the compounds was expressed by TGI (%). TGI (%), reflecting tumor growth inhibition rate. Calculation of TGI(%): TGI(%)=[(1-(average tumor volume at the end of administration of a treatment group−average tumor volume at the beginning of administration of the treatment group))/(average tumor volume at the end of treatment of the solvent control group−average tumor volume at the beginning of treatment of the solvent control group)]×100%. 5. Animal experiment grouping, administration program and experimental results: […]

In assay [3] the test system is Hepatocellular carcinoma. As to conditions: clinical; cited from earlier work.
For assay [4], the system named is Non-small cell lung cancer. As to conditions: clinical; cited from earlier work.
The subject of assay [5] is Colorectal cancer (MSI-H/dMMR). As to conditions: clinical; cited from earlier work.

T1 sequence (P16410 36-223): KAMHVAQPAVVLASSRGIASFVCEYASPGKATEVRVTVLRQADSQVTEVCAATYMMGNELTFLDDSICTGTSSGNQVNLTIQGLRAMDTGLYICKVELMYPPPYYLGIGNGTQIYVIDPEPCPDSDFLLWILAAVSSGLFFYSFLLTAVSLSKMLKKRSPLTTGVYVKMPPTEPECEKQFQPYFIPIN
T1 sequence (P50851 whole entry): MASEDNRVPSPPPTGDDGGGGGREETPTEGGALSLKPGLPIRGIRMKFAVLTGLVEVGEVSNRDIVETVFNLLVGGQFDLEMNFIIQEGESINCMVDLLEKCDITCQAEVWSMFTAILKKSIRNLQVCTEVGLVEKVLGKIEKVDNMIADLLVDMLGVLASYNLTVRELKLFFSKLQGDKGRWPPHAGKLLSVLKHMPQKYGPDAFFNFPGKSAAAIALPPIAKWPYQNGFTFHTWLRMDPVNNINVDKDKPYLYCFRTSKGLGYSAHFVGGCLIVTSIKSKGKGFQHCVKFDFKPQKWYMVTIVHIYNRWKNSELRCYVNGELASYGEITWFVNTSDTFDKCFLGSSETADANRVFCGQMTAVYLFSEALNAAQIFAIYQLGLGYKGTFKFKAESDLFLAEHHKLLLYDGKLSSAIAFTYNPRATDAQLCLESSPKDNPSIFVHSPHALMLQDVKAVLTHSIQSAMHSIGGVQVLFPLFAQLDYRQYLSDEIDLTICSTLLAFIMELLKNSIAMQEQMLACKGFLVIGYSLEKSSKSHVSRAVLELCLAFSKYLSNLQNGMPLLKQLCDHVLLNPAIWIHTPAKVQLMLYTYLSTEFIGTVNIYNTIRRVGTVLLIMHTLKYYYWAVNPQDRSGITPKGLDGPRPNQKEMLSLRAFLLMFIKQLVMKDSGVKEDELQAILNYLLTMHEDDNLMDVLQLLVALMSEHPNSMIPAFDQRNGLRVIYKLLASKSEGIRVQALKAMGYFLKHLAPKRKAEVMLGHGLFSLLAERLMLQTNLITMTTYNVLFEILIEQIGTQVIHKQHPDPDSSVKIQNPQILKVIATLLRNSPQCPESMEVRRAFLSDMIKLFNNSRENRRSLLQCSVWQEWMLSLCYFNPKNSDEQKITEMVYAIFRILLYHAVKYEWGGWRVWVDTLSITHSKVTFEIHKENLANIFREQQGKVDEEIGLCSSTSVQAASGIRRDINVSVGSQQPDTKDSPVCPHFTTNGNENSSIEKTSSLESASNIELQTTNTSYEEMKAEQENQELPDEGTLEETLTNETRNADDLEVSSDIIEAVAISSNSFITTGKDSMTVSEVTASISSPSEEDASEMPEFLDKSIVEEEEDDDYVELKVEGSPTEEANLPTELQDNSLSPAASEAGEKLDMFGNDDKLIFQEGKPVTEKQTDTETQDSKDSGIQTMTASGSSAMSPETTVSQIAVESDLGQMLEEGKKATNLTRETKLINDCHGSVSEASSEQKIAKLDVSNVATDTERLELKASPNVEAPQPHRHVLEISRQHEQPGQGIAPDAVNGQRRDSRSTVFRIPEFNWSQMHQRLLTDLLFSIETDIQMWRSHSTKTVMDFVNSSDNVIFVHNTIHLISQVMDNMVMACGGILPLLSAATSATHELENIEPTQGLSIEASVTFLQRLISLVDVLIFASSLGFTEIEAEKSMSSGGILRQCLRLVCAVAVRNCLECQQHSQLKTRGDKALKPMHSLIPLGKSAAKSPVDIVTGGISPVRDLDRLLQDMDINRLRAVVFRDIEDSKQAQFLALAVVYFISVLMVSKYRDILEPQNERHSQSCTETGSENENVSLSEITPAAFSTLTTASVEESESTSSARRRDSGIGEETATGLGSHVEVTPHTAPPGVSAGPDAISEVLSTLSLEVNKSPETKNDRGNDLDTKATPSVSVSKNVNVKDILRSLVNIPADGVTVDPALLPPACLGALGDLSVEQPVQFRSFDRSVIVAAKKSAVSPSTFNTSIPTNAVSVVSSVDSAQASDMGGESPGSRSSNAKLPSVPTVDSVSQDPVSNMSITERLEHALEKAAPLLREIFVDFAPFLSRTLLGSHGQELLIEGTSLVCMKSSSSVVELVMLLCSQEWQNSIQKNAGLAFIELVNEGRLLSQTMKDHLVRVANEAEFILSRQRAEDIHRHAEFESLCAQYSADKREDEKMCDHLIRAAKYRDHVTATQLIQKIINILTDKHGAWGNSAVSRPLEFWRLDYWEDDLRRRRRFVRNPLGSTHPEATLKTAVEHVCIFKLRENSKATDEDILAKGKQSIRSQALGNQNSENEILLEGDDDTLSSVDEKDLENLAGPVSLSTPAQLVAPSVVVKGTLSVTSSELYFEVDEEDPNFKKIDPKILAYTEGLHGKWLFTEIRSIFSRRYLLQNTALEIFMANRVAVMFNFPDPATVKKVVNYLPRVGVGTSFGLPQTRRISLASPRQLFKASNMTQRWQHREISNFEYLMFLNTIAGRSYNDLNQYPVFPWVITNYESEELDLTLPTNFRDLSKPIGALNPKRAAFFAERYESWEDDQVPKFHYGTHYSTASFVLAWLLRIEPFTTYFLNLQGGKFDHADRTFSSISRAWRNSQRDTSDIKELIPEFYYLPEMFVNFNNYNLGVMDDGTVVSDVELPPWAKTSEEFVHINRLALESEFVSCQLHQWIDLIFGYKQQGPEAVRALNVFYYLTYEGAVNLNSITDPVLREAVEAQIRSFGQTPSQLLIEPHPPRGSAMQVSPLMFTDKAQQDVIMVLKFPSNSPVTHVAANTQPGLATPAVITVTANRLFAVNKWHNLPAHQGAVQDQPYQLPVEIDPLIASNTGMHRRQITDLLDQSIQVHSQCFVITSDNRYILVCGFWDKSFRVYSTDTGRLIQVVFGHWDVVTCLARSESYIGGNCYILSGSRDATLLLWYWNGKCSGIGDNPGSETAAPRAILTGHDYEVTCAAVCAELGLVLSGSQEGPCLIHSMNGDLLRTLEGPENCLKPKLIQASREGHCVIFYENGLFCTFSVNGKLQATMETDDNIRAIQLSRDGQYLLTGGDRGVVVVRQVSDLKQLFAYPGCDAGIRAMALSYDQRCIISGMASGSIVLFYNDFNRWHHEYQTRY

For the compound `c1ccc2ncc(-c3ccnc(N4CCNCC4)n3)cc2c1` [Compound 18, 3-(2-(piperazin-1-yl)pyrimidin-4-yl)quinoline], in assay [1], the IC50 was < 200 nM. Also, the “TGI(%)” value in assay [2] came to 90%. In assay [2] (MC-38 model), the “anti-tumor effect in tumor transplantation model in vivo” value is reported as “excellent anti-tumor effects”.

Regarding `c1ccc2ncc(-c3cc(N4CCNCC4)ncn3)cc2c1` [Compound 44, 3-(6-(piperazin-1-yl)pyrimidin-4-yl)quinoline], the IC50 in assay [1] was < 200 nM. Also, in assay [2], the “TGI(%)” value was determined as 85%.

Turning to `c1ccc2ncc(-c3cc(N4CCOCC4)nc(N4CCNCC4)n3)cc2c1` [Compound 49, 4-(2-(piperazin-1-yl)-6-(quinolin-3-yl)pyrimidin-4-yl)morpholine], in assay [1], the IC50 lay in the range of 200 to 1000 nM.

On to `c1ccc2ncc(-c3nc(N4CCNCC4)ncc3C3CC3)cc2c1` [Compound 50, 3-(5-cyclopropyl-2-(piperazin-1-yl)pyrimidin-4-yl)quinoline], for which the IC50 in assay [1] is < 200 nM. On the same count and under the same terms, as for `COc1ccc(-c2cc(-c3cnc4ccccc4c3)nc(N3CCNCC3)n2)cc1` [Compound 51, 3-(6-(4-methoxyphenyl)-2-(piperazin-1-yl)pyrimidin-4-yl)quinoline], the figure is < 200 nM; as for `Cn1ncc2c(-c3cnc4ccccc4c3)nc(N3CCNCC3)nc21` [Compound 52, 3-(1-methyl-6-(piperazin-1-yl)-1H-pyrazolo[3,4-d]pyrimidin-4-yl)quinoline], 1000 to 2000 nM.

Consider `Cc1c(-c2cnc3ccccc3c2)ncnc1N1CCNCC1` [Compound 53, 3-(5-methyl-6-(piperazin-1-yl)pyrimidin-4-yl)quinoline], for which, in assay [1], the IC50 was < 200 nM.

On to Nivolumab [O drug], for which the ORR result in assay [3] is “single O drug group ORR = 15%”; in assay [4], “single O drug group ORR = 14.5%”; in assay [5], “single O drug group ORR = 36%”.

Source of the values: patent publication US20240199654A1, “CTLA-4 SMALL MOLECULE DEGRADATION AGENT AND APPLICATION THEREOF” (SUZHOU GUOKUANG PHARMTECH. CO., LTD., priority 2021, published 2024).
